What all share (assay type): cell-based
The test system of test [1] is E. coli clinical isolate (strain 1). Nature of the test: MIC by broth microdilution (alone and in combination with meropenam), strain 1. The settings on record: for MIC: Escherichia coli, compound alone. The procedure: (§1) Compounds of the present invention alone, meropenam (MER) alone, and as a combination with test antibiotic (meropenam) were tested for antimicrobial activity by determing minimum inhibitory concentration (MIC, mg/L) using the broth microdilution method according to the guidelines of the Clinical Laboratories and Stansards Insitute (“Methods for Dilution Antimicrobial Suscetibility Tests for Bacterial that Grow Aerobiclly”, Approved standard, […]., Clinical and Laboratories Stanards Institute (CLSI) Document M7-A8, Wayne, Pa., USA, 2009). Meropenam as a test antibiotic compound was dissolved in DMSO. Meropenam was then diluted in microbial growth medium (Mueller-Hinton Broth II, cation adjusted) resulting in a final concention range of 0.125-64 mg/L in serial two-fold dilution. In all cases the filnal DMSO concentraion was less than 0.5%. Bacteria were added to 96-well microtitre plates containing the serial two-fold dilutions of the compoumds; the final cell density was appoximately 5x10^5 colony forming units/mL (CFU/mL). Plates were incubated at 37° C. for 18-24 hours and read visually. The MIC, i.e. the lowest concentration of the test compound that inhibited visible growth of the bacteria, was recorded. The same assay conditions were used when the compounds of present invention alone, and as a combination with test meropenam antibiotic compound was tested for minmum inhibitory concentration (MIC, mg/L). Whileest meropenam was serially diluted as descrribed above, a constant concentration of the present invention of 4 µg/mL was used.
(§2) Bacterial strains that were used to evaluate the antimicrobial activity using the MIC determination included but were not limited to E. coli clinical isolate (strain 1), E. coli 8739 (strain 2), K. pneumoniae clinical isolate (strain 3), K. pneumoniae 700603 (strain 4), E. cloacae clinical isolate (strain 5), E. cloacae 700323 (strain 6), A. baumannii clinical isolate (strain 7), A. baumannii 19606 (strain 8), P. aeruginosa clinical isolate (strain 9), P. aeruginosa 9027 (strain 10).
For orientation: In broth dilution the organism is exposed to a series of concentrations in liquid medium.

Test [2] concerns E. coli 8739 (strain 2). The test is described as follows: MIC by broth microdilution (alone and in combination with meropenam), strain 2. The settings on record: for MIC: Escherichia coli, compound alone. As for the experimental part:
as §1, §2

Test [3] deals with K. pneumoniae clinical isolate (strain 3). The test is described as follows: MIC by broth microdilution (alone and in combination with meropenam), strain 3. The settings on record: for MIC: Klebsiella pneumoniae, compound alone. The procedure: as §1, §2
Test [4] has as its system K. pneumoniae 700603 (strain 4). The test is described as follows: MIC by broth microdilution (alone and in combination with meropenam), strain 4. As to conditions: for MIC: Klebsiella pneumoniae, compound alone. The procedure: as §1, §2
Test [5] deals with E. cloacae clinical isolate (strain 5). The test is described as follows: MIC by broth microdilution (alone and in combination with meropenam), strain 5. The settings on record: for MIC: Enterobacter cloacae, compound alone. The procedure:
as §1, §2

In test [6] the test system is E. cloacae 700323 (strain 6). Nature of the test: MIC by broth microdilution (alone and in combination with meropenam), strain 6. The settings on record: for MIC: Enterobacter cloacae, compound alone. The procedure: as §1, §2
The test system of test [7] is A. baumannii clinical isolate (strain 7). The test is described as follows: MIC by broth microdilution (alone and in combination with meropenam), strain 7. The settings on record: for MIC: Acinetobacter baumannii, compound alone. As for the experimental part: as §1, §2
For test [8], the system named is A. baumannii 19606 (strain 8). Nature of the test: MIC by broth microdilution (alone and in combination with meropenam), strain 8. The settings on record: for MIC: Acinetobacter baumannii, compound alone. The procedure: as §1, §2
In test [9] the test system is P. aeruginosa clinical isolate (strain 9). The test is described as follows: MIC by broth microdilution (alone and in combination with meropenam), strain 9. As to conditions: for MIC: Pseudomonas aeruginosa, compound alone. The procedure:
as §1, §2

In test [10] the test system is P. aeruginosa 9027 (strain 10). Nature of the test: MIC by broth microdilution (alone and in combination with meropenam), strain 10. As to conditions: for MIC: Pseudomonas aeruginosa, compound alone. As for the experimental part:
as §1, §2

[11] abbreviates: read-out: MIC, antibacterial activity of example alone.

This note sets out measurements from patent US20230365561A1, “BETA-LACTAMASE INHIBITORS AND THEIR PREPARATION” (NINGXIA ACADEMY OF AGRICUL TURE AND FORESTRY SCIENCES, priority 2020, published 2023).

SMILES strings stand for the structures. Structures can show the parent of a compound that is named as a salt. Where two headings read alike, the source gives them in different places.

What is called MIC is the lowest concentration found to suppress growth. As to `CC(=O)N1CCCC[C@@H]1C(=O)NC(=N)[C@@H]1CC[C@@H]2CN1C(=O)N2OS(=O)(=O)[O-].[Na+]` [Ex.46, Sodium (2S,5R)-2-(N-((R)-1-acetylpiperidine-2-carbonyl)carbamimidoyl)-7-oxo-1,6-diazabicyclo[3.2.1]octan-6-yl Sulfate], the MIC in [1] (read-out: MIC), in test [2] (read-out: MIC), in [3] (read-out: MIC), in test [4] (read-out: MIC), in test [5] (read-out: MIC) and in test [6] (read-out: MIC) was more than 64 µg/mL each time. Besides, the MIC in test [7] (read-out: MIC), in test [8] (read-out: MIC), in test [9] (read-out: MIC) and in [10] (read-out: MIC) was more than 64 µg/mL in each case.
Consider `N=C(NC(=O)c1ccncn1)[C@@H]1CC[C@@H]2CN1C(=O)N2OS(=O)(=O)[O-].[Na+]` [Ex.48, Sodium (2S,5R)-7-oxo-2-(N-(pyrimidine-4-carbonyl)carbamimidoyl)-1,6-diazabicyclo[3.2.1]octan-6-yl Sulfate], for which the MIC in test [1] (read-out: MIC), in test [2] (read-out: MIC), in test [3] (read-out: MIC), in [4] (read-out: MIC), in [5] (read-out: MIC) and in test [6] (read-out: MIC) was more than 64 µg/mL each time. Moreover, the MIC in test [7] (read-out: MIC), in test [8] (read-out: MIC), in [9] (read-out: MIC) and in test [10] (read-out: MIC) was more than 64 µg/mL throughout.
Turning to `CN1CCN(CC(=O)NC(=N)[C@@H]2CC[C@@H]3CN2C(=O)N3OS(=O)(=O)[O-])CC1.[Na+]` [Ex.42, Sodium (2S,5R)-2-(N-(2-(4-methylpiperazin-1-yl)acetyl)carbamimidoyl)-7-oxo-1,6-diazabicyclo[3.2.1]octan-6-yl Sulfate], the MIC in test [1] (setting [11]), in test [2] (setting [11]), in test [3] (setting [11]), in [4] (setting [11]), in test [5] (setting [11]) and in test [6] (setting [11]) was more than 64 µg/mL throughout. Moreover, the minimum inhibitory concentration (MIC) in [7] (setting [11]), in [8] (setting [11]), in [9] (setting [11]) and in test [10] (setting [11]) was more than 64 µg/mL in each case.
Regarding `N=C(NC(=O)c1ccc(C(F)(F)F)cn1)[C@@H]1CC[C@@H]2CN1C(=O)N2OS(=O)(=O)[O-].[Na+]` [Ex.50, Sodium (2S,5R)-7-oxo-2-(N-(5-(trifluoromethyl)picolinoyl)carbamimidoyl)-1,6-diazabicyclo[3.2.1]octan-6-yl Sulfate], the MIC in [1] (read-out: MIC), in [2] (read-out: MIC), in test [3] (read-out: MIC), in test [4] (read-out: MIC), in [5] (read-out: MIC) and in test [6] (read-out: MIC) was more than 64 µg/mL in each case. Besides, the MIC in [7] (read-out: MIC), in test [8] (read-out: MIC), in test [9] (read-out: MIC) and in test [10] (read-out: MIC) was more than 64 µg/mL in each case.
Turning to `C[C@@H](O)[C@H]1C(=O)N2C(C(=O)O)=C(S[C@@H]3CN[C@H](C(=O)N(C)C)C3)[C@H](C)[C@H]12` [MER, meropenam, reference compound], the “MIC, MER Alone” value in test [1] (meropenam alone) worked out at 2.0 µg/mL; in test [2] (meropenam alone) it was 2.0 µg/mL; in [3] (meropenam alone), 2.0 µg/mL; in test [4] (meropenam alone), 1.0 µg/mL; in [5] (meropenam alone), 2.0 µg/mL; in [6] (meropenam alone), 2.0 µg/mL. For the same compound, the “MIC, MER Alone” value in [7] (meropenam alone) is 2.0 µg/mL; in test [8] (meropenam alone), 1.0 µg/mL; in [9] (meropenam alone) it was 2.0 µg/mL; in [10] (meropenam alone), 2.0 µg/mL.
Regarding `N=C(NC(=O)c1ccncc1)[C@@H]1CC[C@@H]2CN1C(=O)N2OS(=O)(=O)O` [Ex.7, (2S,5R)-2-(N-isonicotinoylcarbamimidoyl)-7-oxo-1,6-diazabicyclo[3.2.1]octan-6-yl Hydrogen Sulfate], the minimum inhibitory concentration (MIC) in test [1] (setting [11]), in test [2] (setting [11]), in test [3] (setting [11]), in test [4] (setting [11]), in test [5] (setting [11]) and in [6] (setting [11]) was more than 64 µg/mL in each case. Besides, the MIC in test [7] (setting [11]), in test [8] (setting [11]), in [9] (setting [11]) and in [10] (setting [11]) was more than 64 µg/mL each time.
In the case of `CN1CCC[C@H](C(=O)NC(=N)[C@@H]2CC[C@@H]3CN2C(=O)N3OS(=O)(=O)[O-])C1.[Na+]` [Ex.28, Sodium (2S,5R)-2-(N-((S)-1-methylpiperidine-3-carbonyl)carbamimidoyl)-7-oxo-1,6-diazabicyclo[3.2.1]octan-6-yl Sulfate], the MIC in test [1] (setting [11]), in test [2] (setting [11]), in test [3] (setting [11]), in test [4] (setting [11]), in [5] (setting [11]) and in [6] (setting [11]) was more than 64 µg/mL throughout. Further, the minimal inhibitory concentration (MIC) in [7] (setting [11]), in test [8] (setting [11]), in test [9] (setting [11]) and in [10] (setting [11]) was more than 64 µg/mL in each case.
As for `CC(=O)NCCC(=O)NC(=N)[C@@H]1CC[C@@H]2CN1C(=O)N2OS(=O)(=O)[O-].[Na+]` [Ex.19, Sodium (2S,5R)-2-(N-(3-acetamidopropanoyl)carbamimidoyl)-7-oxo-1,6-diazabicyclo[3.2.1]octan-6-yl Sulfate], the minimal inhibitory concentration (MIC) in test [1] (setting [11]), in test [2] (setting [11]), in test [3] (setting [11]), in test [4] (setting [11]), in [5] (setting [11]) and in test [6] (setting [11]) was more than 64 µg/mL in each case. Further, the MIC in [7] (setting [11]), in test [8] (setting [11]), in test [9] (setting [11]) and in test [10] (setting [11]) was more than 64 µg/mL each time.
Take `N=C(NC(=O)c1ccccc1)[C@@H]1CC[C@@H]2CN1C(=O)N2OS(=O)(=O)O` [Ex.2, (2S,5R)-2-(N-benzoylcarbamimidoyl)-7-oxo-1,6-diazabicyclo[3.2.1]octan-6-yl Hydrogen Sulfate]: the MIC in test [1] (setting [11]), in test [2] (setting [11]), in [3] (setting [11]), in test [4] (setting [11]), in [5] (setting [11]) and in test [6] (setting [11]) was more than 64 µg/mL throughout. Besides, the minimal inhibitory concentration (MIC) in test [7] (setting [11]), in test [8] (setting [11]), in test [9] (setting [11]) and in [10] (setting [11]) was more than 64 µg/mL each time.
Turning to `N=C(NC(=O)c1nccs1)[C@@H]1CC[C@@H]2CN1C(=O)N2OS(=O)(=O)[O-].[Na+]` [Ex.23, Sodium (2S,5R)-7-oxo-2-(N-(thiazole-2-carbonyl)carbamimidoyl)-1,6-diazabicyclo[3.2.1]octan-6-yl Sulfate], the MIC in test [1] (setting [11]), in test [2] (setting [11]), in [3] (setting [11]), in [4] (setting [11]), in test [5] (setting [11]) and in test [6] (setting [11]) was more than 64 µg/mL each time. Further, the MIC in [7] (setting [11]), in test [8] (setting [11]), in test [9] (setting [11]) and in test [10] (setting [11]) was more than 64 µg/mL each time.
Regarding `N=C(NC(=O)c1cocn1)[C@@H]1CC[C@@H]2CN1C(=O)N2OS(=O)(=O)[O-].[Na+]` [Ex.20, Sodium (2S,5R)-2-(N-(oxazole-4-carbonyl)carbamimidoyl)-7-oxo-1,6-diazabicyclo[3.2.1]octan-6-yl Sulfate], the MIC in test [1] (setting [11]), in [2] (setting [11]), in test [3] (setting [11]), in test [4] (setting [11]), in test [5] (setting [11]) and in test [6] (setting [11]) was more than 64 µg/mL throughout. The MIC in test [7] (setting [11]), in test [8] (setting [11]), in [9] (setting [11]) and in test [10] (setting [11]) was more than 64 µg/mL in each case.
`N#Cc1ccc(C(=O)NC(=N)[C@@H]2CC[C@@H]3CN2C(=O)N3OS(=O)(=O)[O-])cc1.[Na+]` [Ex.45, Sodium (2S,5R)-2-(N-(4-cyanobenzoyl)carbamimidoyl)-7-oxo-1,6-diazabicyclo[3.2.1]octan-6-yl Sulfate]: the minimal inhibitory concentration (MIC) in [1] (read-out: MIC), in test [2] (read-out: MIC), in test [3] (read-out: MIC), in test [4] (read-out: MIC), in [5] (read-out: MIC) and in test [6] (read-out: MIC) was more than 64 µg/mL in each case. Moreover, the minimal inhibitory concentration (MIC) in test [7] (read-out: MIC), in [8] (read-out: MIC), in test [9] (read-out: MIC) and in [10] (read-out: MIC) was more than 64 µg/mL each time.
